Tests used:
Plasmodium falciparum [1] = test: Antiplasmodial activity against choloroquine-sensitive ring stage of Plasmodium falciparum 3D7 assessed as inhibition of parasite growth measured after 72 hrs by DAPI staining based analysis; assay type: functional, organism-based; settings: 3D7, 72 h
[2] = Cytotoxicity against human HEK293 cells assessed as inhibition of cell viability measured after 66 hrs by Alamar Blue dye based fluorescence analysis; assay type: toxicity
[3] = Cytotoxicity against human HEK293 cells assessed as inhibition of cell viability at 80 uM measured after 66 hrs by Alamar Blue dye based fluorescence analysis; assay type: toxicity; settings: read-out: INH
Plasmodium falciparum [4] = test: Antiplasmodial activity against choloroquine-sensitive ring stage of Plasmodium falciparum 3D7 assessed as inhibition of parasite growth at 40 uM measured after 72 hrs by DAPI staining based analysis; assay type: functional

Row | SMILES | IC50 (Plasmodium falciparum [1]) [µM] | IC50 at 66 h [2] [µM] | cytotoxicity at 66 h, 80 µM [3] [%] | inhibition at 40 µM (Plasmodium falciparum [4]) [%]
1 | CC(C)=CCCc1cnc2c(C)cc(OCc3cccc(Br)c3)c3c2c1CC[C@H]3C | 7.2 | 39.3 | – | –
2 | CC(C)=CCCc1cnc2c(C)cc(OCc3cccc([N+](=O)[O-])c3)c3c2c1CC[C@H]3C | 13.1 | – | 7 | –
3 | CC(C)=CCCc1cnc2c(C)cc(O)c3c2c1CC[C@H]3C | 8.9 | – | 92 | –
4 | CC(C)=CCCc1cnc2c(C)cc(OCc3ccc(Br)cc3)c3c2c1CC[C@H]3C | 9.7 | 40.7 | – | –
5 | COc1ccc(C[C@H](N)C(=O)N[C@H]2[C@@H](O)[C@H](n3cnc4c(N(C)C)ncnc43)O[C@@H]2CO)cc1 [PUROMYCIN] | 0.033 | 0.49 | – | –
6 | C=CCOc1cc(C)c2ncc(CCC=C(C)C)c3c2c1[C@H](C)CC3 | 13.1 | – | 85 | –
7 | C[C@H]1[C@@H](O)O[C@@H]2O[C@@]3(C)CC[C@H]4[C@H](C)CC[C@@H]1[C@@]24OO3 [ARTENIMOL] | 0.021 | – | – | –
8 | CC(C)=CCCc1cnc2c(C)cc(OC3CCCCC3)c3c2c1CC[C@H]3C | – | – | 23 | 93
9 | CC(C)=CCCc1cnc2c(C)cc(OCc3ccccc3)c3c2c1CC[C@H]3C | 7.6 | 30.8 | – | –
10 | CC(C)=CCCc1cnc2c(C)cc(OC3CCCC3)c3c2c1CC[C@H]3C | 12.5 | – | 83 | –
11 | CC(C)=CCCc1cnc2c(C)cc(O)c3c2c1[C@H](O)C[C@H]3C | – | – | 14 | 78
12 | CC(C)=CCCc1cnc2c(C)cc(OCc3cc(F)ccc3F)c3c2c1CC[C@H]3C | 8 | 31.4 | – | –
13 | CC(C)=CCCc1cnc2c(C)cc(OCc3ccccc3-c3ccccc3)c3c2c1CC[C@H]3C | 8 | – | 94 | –
14 | CC(C)=CCCc1cnc2c(C)cc(OCc3cccc(Cl)c3)c3c2c1CC[C@H]3C | 11 | – | 65 | –
